From patent publication US20210395210A1, “INHIBITION OF BACTERIAL CHAPERONIN SYSTEMS” (THE TRUSTEES OF INDIANA UNIVERSITY, priority 2018, published 2021)
Like-named read-outs stand apart in the source and are kept apart here.

How the values were obtained:
[1] = in vitro; details: human
Procedure: HEK 293 cells were maintained in MEM medium (Corning Cellgro, 10-009 CV) supplemented with 10% FBS (Sigma, F2242). […] Cells at 80% confluence were harvested and diluted in growth medium, then 45 μL of the THLE-3 cells (1,500 cells/well) or HEK 293 cells (1,500 cells/well) were dispensed per well, and plates were sealed with “Breathe Easy” oxygen permeable membranes (Diversified Biotech) and incubated at 37° C., 5% CO2, for 24 h.

[2] = target: T1, E. coli GroEL/ES (Escherichia coli, UniProt P0A6F5); experiment: GroEL/ES-mediated dMDH refolding assay; assay type: biochemical; details: for inhibition in the GroEL/ES-mediated refolding assays (in words): dMDH and dRho refolding assays
T1 construct: made in house; host or cells: GroEL in E. coli DH5α; GroES in E. coli BL21 (DE3)
Procedure: Reagent preparation: For these assays, four primary reagent stocks were prepared: 1) GroEUES-dMDH or HSP60/10-dMDH binary complex stock; 2) ATP initiation stock; 3) EDTA quench stock; 4) MDH enzymatic assay stock. Denatured MDH (dMDH) was prepared by 2-fold dilution of MDH (5 mg/ml, soluble pig heart MDH from Roche, product #10127248001) with denaturant buffer (7 M guanidine-HCl, 200 mM Tris, pH 7.4, and 50 mM DTT). MDH was completely denatured by incubating at room temperature for 45 min. The binary complex solutions were prepared by slowly adding the dMDH stock to a stirring stock with GroEL (or HSP60) in folding buffer (50 mM Tris-HCl, pH 7.4, 50 mM KCl, 10 mM MgCl2, and 1 mM DTT), followed by addition of GroES (or HSP10). The binary complex stocks were prepared immediately prior to dispensing into the assay plates and had final protein concentrations of 83.3 nM GroEL (Mr 800 kDa) or HSP60 (Mr 400 kDa), 100 nM GroES or HSP10 (Mr 70 kDa), and 20 nM dMDH in folding buffer. For the ATP initiation stock, ATP solid was diluted into folding buffer to a final concentration of 2.5 mM. Quench solution contained 600 mM EDTA (pH 8.0). The MDH enzymatic assay stock consisted of 20 mM sodium mesoxalate and 2.4 mM NADH in reaction buffer (50 mM Tris-HCl, pH 7.4, 50 mM KCl, and 1 mM DTT).
Assay Protocol: First, 30 μL aliquots of the GroEL/ES-dMDH or HSP60/10-dMDH binary complex stocks were dispensed into clear, 384-well polystyrene plates. […] The chaperonin-mediated refolding cycles were initiated by addition of 20 μL of ATP stock (reagent concentrations during refolding cycle: 50 nM GroEL or HSP60, 60 nM GroES or HSP10, 12 nM dMDH, 1 mM ATP, and compounds of 100 μM to 46 nM, 3-fold dilution series). The refolding reactions were incubated at 37° C. […] Next, the assay was quenched by addition of 10 μL of the EDTA to final concentration of 100 mM. […] A340 nm measurements were recorded at 0.5 minutes (start point) and at successive time points until the amount of NADH consumed reached ˜90% (end point, generally between 20-35 minutes). The differences between the start and end point A340 values were used to calculate the % inhibition of the GroEL/ES or HSP60/10 machinery by the compounds. […] Results presented represent the averages of IC50 values obtained from at least quadriplicate (duplicate of duplicate) replicates.
After generating the compound library, we next employed a series of well-established biochemical assays to evaluate compound inhibitory effects against the GroEUES chaperonin system (See FIG. 6 and FIG. 7). We used E. coli GroEUES as the surrogate chaperonin system for refolding of the reporter enzymes malate dehydrogenase (MDH) and rhodanese (Rho). Briefly, binary complexes are formed between GroEL and denatured MDH or Rho, which are then refolded to their native states upon addition of ATP and the GroES co-chaperonin. Enzymatic activities of refolded native MDH or Rho act as coupled reporters of GroEUES refolding functions since in the presence of chaperonin inhibitors, no functional reporter enzymes are generated.

[3] = target: T2, native Rho (rhodanese) (Bos taurus, UniProt P00586); experiment: Counter-screen for inhibition of native rhodanese enzymatic activity; assay type: biochemical; details: for log(IC50) Native Rho Reporter: log of IC50 (μM scale), with standard deviation
T2 construct: purchased Roche (so in the source) R1756
T2 sequence (P00586 1-297): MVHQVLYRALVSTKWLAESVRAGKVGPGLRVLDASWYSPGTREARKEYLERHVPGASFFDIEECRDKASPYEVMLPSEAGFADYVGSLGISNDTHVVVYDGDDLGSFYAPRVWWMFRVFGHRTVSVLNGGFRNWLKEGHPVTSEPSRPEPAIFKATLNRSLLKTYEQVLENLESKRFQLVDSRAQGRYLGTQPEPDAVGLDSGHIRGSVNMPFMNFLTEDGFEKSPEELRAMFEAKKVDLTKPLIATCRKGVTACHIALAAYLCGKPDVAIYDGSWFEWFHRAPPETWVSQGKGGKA
Procedure: Reagent Preparations & Assay Protocol: Reagents were identical to those used in the GroEUES-dRho refolding assay described above; however, the assay protocol differed in the sequence of compound addition to the wells. Compounds were pin-transferred after the 60 minute incubation for the refolding cycle, but prior to the addition of the thiocyanate enzymatic assay stock. Thus, the refolding reactions were allowed to proceed for 60 min at 37° C. in the absence of test compounds, but the enzymatic activity of the refolded rhodanese reporter enzyme was monitored in the presence of test compounds (inhibitor concentration range during the enzymatic reporter reaction is 100 µM to 46 nM-3-fold dilutions). IC50 values for the rhodenase reporter enzyme were determined as described above. Results presented represent the averages of IC50 values obtained from at least quadriplicate (duplicate of duplicate) replicates.

[4] = log of IC50 (μM scale), with standard deviation
[5] = read-out: Biochemical Assay IC50 Native Rho Reporter
[6] = read-out: Biochemical Assay IC50 GroEL/ES-dMDH refolding

T1 sequence (P0A6F5 2-548): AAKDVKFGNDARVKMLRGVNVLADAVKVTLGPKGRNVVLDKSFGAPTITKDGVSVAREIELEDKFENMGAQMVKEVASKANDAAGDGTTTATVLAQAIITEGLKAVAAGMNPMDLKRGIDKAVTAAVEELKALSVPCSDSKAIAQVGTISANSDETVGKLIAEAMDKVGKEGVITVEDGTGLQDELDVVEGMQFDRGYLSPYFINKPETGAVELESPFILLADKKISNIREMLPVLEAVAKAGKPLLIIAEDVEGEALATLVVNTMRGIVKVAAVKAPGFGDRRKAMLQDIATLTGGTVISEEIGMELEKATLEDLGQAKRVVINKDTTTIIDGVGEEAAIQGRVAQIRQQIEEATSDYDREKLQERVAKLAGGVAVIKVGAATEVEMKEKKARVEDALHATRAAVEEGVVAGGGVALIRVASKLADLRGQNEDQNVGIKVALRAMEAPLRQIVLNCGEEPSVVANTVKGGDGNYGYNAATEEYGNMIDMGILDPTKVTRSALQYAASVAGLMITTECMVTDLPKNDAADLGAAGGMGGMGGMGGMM

| Compound | CC50 at 48 h [1] | IC50 [2] | log(IC50) GroEL/ES-dMDH Refolding [2, 4] | log(IC50) Native Rho Reporter [3] | IC50 [3, 5] | CC50 at 48 h ([1]; HEK 293 kidney cells) | inhibition in the GroEL/ES-mediated refolding assays (in words) [2] | IC50 [2, 6] | IC50 ([2]; log of IC50 (μM scale), with standard deviation, read-out: log(IC50) GroEL/ES-dMDH Refolding (converted)) | IC50 [3] |
| --- | --- | --- | --- | --- | --- | --- | --- | --- | --- | --- |
| COc1c(Br)cccc1C(=O)Nc1ccccc1 [Compound 42, 3-Bromo-2-methoxy-N-phenylbenzamide] | > 100 µM | > 100 µM | >2 | >2 | > 100 µM |  |  |  |  |  |
| Cc1cc(C(C#N)c2ccc(Cl)cc2)c(Cl)cc1NC(=O)c1cc(I)cc(I)c1O (stereo not shown) [Closantel, closantel, reference compound] |  | 2.24 µM |  | >2 | > 100 µM | 75.9 µM | potent GroEUES inhibitors | 2.2 µM |  |  |
| COc1c(Br)cc(Br)cc1C(=O)Nc1ccc(Sc2nc3ccccc3s2)c(Cl)c1 [Compound 29, N-(4-(Benzo[d]thiazol-2-ylthio)-3-chlorophenyl)-3,5-dibromo-2-methoxybenzamide] | > 100 µM | > 100 µM |  |  | > 100 µM |  |  |  |  |  |
| O=C(Nc1ccc(Sc2nc3ccccc3s2)cc1)c1cc(Br)cc(Br)c1 [Compound 20, N-(4-(Benzo[d]thiazol-2-ylthio)phenyl)-3,5-dibromobenzamide] | > 100 µM | > 100 µM |  |  | > 100 µM |  |  |  |  |  |
| O=C(Nc1ccc(Oc2ccc(Cl)cc2)c(Cl)c1)c1cc(I)cc(I)c1O [Rafoxanide, rafoxanide, reference compound] | > 100 µM |  |  | >2 |  |  | potent GroEUES inhibitors | 4.3 µM | 4.37 µM | > 100 µM |
| O=C(Nc1ccccc1)c1ccccc1O [Compound 16, 2-Hydroxy-N-phenylbenzamide] | > 100 µM |  | >2 | >2 |  |  |  | > 100 µM |  | > 100 µM |
| COc1ccccc1C(=O)Nc1ccc(Sc2nc3ccccc3s2)cc1 [Compound 36, N-(4-(Benzo[d]thiazol-2-ylthio)phenyl)-2-methoxybenzamide] | > 100 µM | > 100 µM |  |  | > 100 µM |  |  |  |  |  |
| COc1ccc(Br)cc1C(=O)Nc1cccc(Cl)c1 [Compound 39, 5-Bromo-N-(3-chlorophenyl)-2-methoxybenzamide] | > 100 µM | > 100 µM | >2 | >2 | > 100 µM |  |  |  |  |  |
| COc1c(Br)cccc1C(=O)Nc1cccc(Cl)c1 [Compound 38] | > 100 µM | > 100 µM | >2 | >2 | > 100 µM |  |  |  |  |  |
| CN[C@H](CC(C)C)C(=O)N[C@H]1C(=O)N[C@@H](CC(N)=O)C(=O)N[C@H]2C(=O)N[C@H]3C(=O)N[C@H](C(=O)N[C@H](C(=O)O)c4cc(O)cc(O)c4-c4cc3ccc4O)[C@H](O)c3ccc(c(Cl)c3)Oc3cc2cc(c3O[C@@H]2O[C@H](CO)[C@@H](O)[C@H](O)[C@H]2O[C@H]2C[C@](C)(N)[C@H](O)[C@H](C)O2)Oc2ccc(cc2Cl)[C@H]1O [Vancomycin, vancomycin, reference compound] | > 100 µM | > 100 µM | >2 | >2 |  |  |  |  |  | > 100 µM |
| COc1ccccc1C(=O)Nc1cccc(Cl)c1 [Compound 40, N-(3-Chlorophenyl)-2-methoxybenzamide] | > 100 µM | > 100 µM | >2 | >2 | > 100 µM |  |  |  |  |  |
| O=C(Nc1cccc(Cl)c1)c1cc(Br)cc(Br)c1O [Compound 9, 3,5-Dibromo-N-(3-chlorophenyl)-2-hydroxybenzamide] | 18.2 µM |  | 1.38 ± 0.15 | >2 | > 100 µM |  |  | 24 µM |  |  |
| O=C(Nc1ccccc1)c1cccc(Br)c1 [Compound 27, 3-Bromo-N-phenylbenzamide] | > 100 µM | > 100 µM | >2 | >2 | > 100 µM |  |  |  |  |  |
| COc1c(Br)cc(Br)cc1C(=O)Nc1cccc(Cl)c1 [Compound 37, 3,5-Dibromo-N-(3-chlorophenyl)-2-methoxybenzamide] | > 100 µM | > 100 µM | >2 | >2 | > 100 µM |  |  |  |  |  |
| O=C(Nc1ccc(Sc2nc3ccccc3s2)cc1)c1ccccc1 [Compound 22, N-(4-(Benzo[d]thiazol-2-ylthio)phenyl)benzamide] | > 100 µM | > 100 µM |  |  | > 100 µM |  |  |  |  |  |
| O=C(Nc1ccccc1)c1cc(Br)cc(Br)c1 [Compound 26, 3,5-Dibromo-N-phenylbenzamide] | > 100 µM | > 100 µM | >2 | >2 | > 100 µM |  |  |  |  |  |
| COc1c(Br)cccc1C(=O)Nc1ccc(Sc2nc3ccccc3s2)c(Cl)c1 [Compound 30, N-(4-(Benzo[d]thiazol-2-ylthio)-3-chlorophenyl)-3-bromo-2-methoxybenzamide] | > 100 µM | > 100 µM |  |  |  |  |  |  |  |  |
